Experimental data as given in patent US8901118B2, “Compounds and methods for kinase modulation, and indications therefor” (Plexxikon Inc., priority 2010, dated 2014).

Columns and labels:
BCR-NTRK2 BaF3 cells = biological target: T1, BCR-NTRK2 BaF3 cells (Homo sapiens, UniProt Q16620); experiment: BaF3 BCR-NTRK2 cell proliferation assay (ATPlite); assay type: cell-based; settings: read-out: Inhibition of Cell Proliferation IC50, BCR/BaF3 TrkB
T1 construct: fused on or other part: P11274 (Breakpoint cluster region protein)
T1 sequence (Q16620 538-807): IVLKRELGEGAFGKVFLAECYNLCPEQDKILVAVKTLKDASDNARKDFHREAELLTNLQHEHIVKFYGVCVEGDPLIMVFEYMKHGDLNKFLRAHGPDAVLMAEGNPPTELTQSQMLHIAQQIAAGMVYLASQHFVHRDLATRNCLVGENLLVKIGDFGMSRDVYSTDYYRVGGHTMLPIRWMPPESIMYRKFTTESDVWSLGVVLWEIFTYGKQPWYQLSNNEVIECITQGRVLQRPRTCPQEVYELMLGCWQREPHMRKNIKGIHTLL
Procedure: Compounds are assessed in a variety of cell based assays. For example BaF3 cells engineered with any of BCR-FMS, BCR-KIT, BCR-FLT3, BCR-NTRK1, BCR-NTRK2, and BCR-NTRK3, are used in cell proliferation assays to assess inhibitory activity of Fms, Kit, Flt-3, TrkA, TrkB, and TrkC, respectively. An MV-4-11 (leukemia) cell proliferation assay is used to assess inhibitory activity in Flt-3, and SKNSH (human neuroblastoma) cell proliferation assay is used to assess efficacy of Fms/Trk inhibitors. Additional cells may be assayed similarly to assess the efficacy of Fms/Trk inhibitors, such as MiaPaCa (human pancreatic cancer) and Capan-1 (human pancreatic carcinoma) cells. Reagent and assay conditions are as follows: • BaF3 cells: • Maintained in RPMI containing 10% FBS, 1% PenStrep, 1% NEAA, and 1% L-Glutamine, supplemented with 1 mg/mL G418 and 5% WEHI-CM (or recombinant murine IL-3). • Confluent cells are split 1:50 to 1:100 every 3-4 days. • MV-4-11 cells: • Maintained in Iscove's Modified Dulbecco's Medium containing 10% FBS. • Confluent cells are split 1:4 every 3-4 days. • SKNSH cells: RPMI containing 10% FBS. On day 1, cells are counted, then centrifuged in a conical tube for 5 minutes at 1000 rpm. The supernatant is removed and cells are re-suspended as follows: • BaF3: resuspend in growth media +1 mg/mL G418 (without WEHFIL-3) to 2×10^5 cells/mL. • MV-4-11: resuspend in growth media to 5×10^5 cells/mL. • SKNSH: resuspend in growth media to 2×10^4 cells/mL. The cells are plated (50 μL, 150 μL for SKNSH cells) in each well of a 96-well dish (Corning 3610) and incubated at 37° C. in 5% CO2 overnight, cells plated to a final concentration of cells as follows: • BaF3: 10,000 cells per well. • MV-4-11: 25,000 cells per well. • SKNSH: 3,000 cells per well. On day 2, compound at a maximum concentration of 5 mM is serially diluted 1:3 for a total of 8 point titration with DMSO as a control. A 1 μL aliquot of each dilution point is added to 249 μL growth media and 50 μL is added to a well containing cells, providing 10 μM compound for the maximum concentration point. The cells are incubated for 3 days at 37° C. in 5% CO2. For SKNSH cells, a 0.75 μL aliquot of appropriate dilution in DMSO is added to 150 μL of cells. On day 5, ATPlite 1 step Luminescence Assay System (Perkin Elmer #6016739) is brought to room temperature along with the cell cultures. ATPlite is added to each well as follows: • BaF3: 25 μL per well. • MV-4-11: 40 μL per well. • SKNSH: 20 μL per well. The cells are incubated at room temperature for 10 minutes, then luminescence is read on Safire reader. The measured luminescence correlates directly with cell number, such that the reading as a function of compound concentration is used to determine the IC50 value.
It is understood that the results of these assays may vary as assay conditions are varied. Inhibition levels determined under the conditions described herein represent a relative activity for the compounds tested under the specific conditions employed. The cell based assays are likely to show variability due to the complexity of the system and the sensitivity thereof to any changes in the assay conditions. […] Results for compounds that are tested and show substantially no inhibition below the highest tested concentration are represented as “-” in the tables below. In some instances, the compounds were not tested in all of the assays, or assay results were not valid, as indicated by NA in the tables below.

[1] = Relative solubility by turbidity in aqueous buffers (pH 1.5, 4.5, 6.8, 7.4); assay type: physicochemical; settings: for turbidity threshold (L, M, H) 1.4: pH 1.5 (SGF); for turbidity threshold (L, M, H) 4.5: pH 4.5 (SIF); for turbidity threshold (L, M, H) 6.8: pH 6.8 (SIF); for turbidity threshold (L, M, H) 7.4: pH 7.4 (HEPES)
Procedure: As an indication of relative solubility, the turbidity of compounds in aqueous solutions is assessed. To assess possible compound properties in different physiological compartments, such as stomach, intestine, and blood, a series of aqueous buffers with varying pH is used. Thus each compound is diluted into four different physiologically relevant buffers and solution turbidity is measured by spectrophotometry.
Compounds are dissolved at a concentration of 25 mM in dimethyl sulfoxide, then serially diluted 1:1 into a 96 well plate, diluting 10 times in pure dimethyl sulfoxide, with the final well of each row a dimethyl sulfoxide blank. In an assay plate, 99 μL of appropriate buffer is added to each well, and 1 μL of each sample dilution is added to the buffer, achieving a range of final total concentrations in aqueous solutions having different pH. The buffers used are Simulated Gastric Fluid (SGF-pH 1.5) 0.5M NaCl, pH 1.5; Simulated Intestinal fluid (SIF-pH 4.5 and pH 6.8) 0.05M NaH2PO4, pH 4.5 and 6.8; and Hepes Buffer (HEPES-pH 7.4) 10 mM HEPES, 150 mM NaCl, pH 7.4. Control compounds pyrene, estriol and propranolol HCl are also assessed. Plates are spun and then mixed for 1 minute, and the absorbance is read using a Tecan Safire II to read wavelengths in the visible range (490, 535, and 650 nm) at four locations per well, reflecting the degree of turbidity present. The average optical density for each wavelength in each well is graphed vs. compound concentration, and the concentration at which the curve crosses a threshold O.D. of 0.01 for each wavelength is reported as the endpoint turbidity assay result. The average of the three wavelengths is used to compare turbidity of compounds.

SMILES | IC50 (BCR-NTRK2 BaF3 cells) [nM] | turbidity threshold (L, M, H) 1.4 [1] | turbidity threshold (L, M, H) 4.5 [1] | turbidity threshold (L, M, H) 6.8 [1] | turbidity threshold (L, M, H) 7.4 [1]
CCc1ccc(Nc2ccc(C(=O)c3c[nH]c4ncnc(N)c34)c(F)n2)cn1 [Compound P-4065, (4-amino-7H-pyrrolo[2,3-d]pyrimidin-5-yl)-[6-[(6-ethyl-3-pyridyl)amino]-2-fluoro-3-pyridyl]methanone] | < 10 | H (high solubility if the threshold concentration is >250 μm) | M (moderate solubility if the threshold concentration is 31.3 μM to 250 μM) | M (moderate solubility if the threshold concentration is 31.3 μM to 250 μM) | M (moderate solubility if the threshold concentration is 31.3 μM to 250 μM)
COc1ccc(Nc2ccc(C(=O)c3c[nH]c4ncnc(NC(C)C)c34)c(F)n2)cn1 [Compound P-4066, [2-fluoro-6-[(6-methoxy-3-pyridyl)amino]-3-pyridyl]-[4-(isopropylamino)-7H-pyrrolo[2,3-d]pyrimidin-5-yl]methanone] | < 10 | M (moderate solubility if the threshold concentration is 31.3 μM to 250 μM) | L (low solubility if the threshold concentration is <31.3 μM) | L (low solubility if the threshold concentration is <31.3 μM) | M (moderate solubility if the threshold concentration is 31.3 μM to 250 μM)
COc1ccc(Nc2ccc(C(=O)c3c[nH]c4ncnc(NCC5CC5)c34)c(F)n2)cn1 [Compound P-4067, [4-(cyclopropylmethylamino)-7H-pyrrolo[2,3-d]pyrimidin-5-yl]-[2-fluoro-6-[(6-methoxy-3-pyridyl)amino]-3-pyridyl]methanone] | < 10 | H (high solubility if the threshold concentration is >250 μm) | M (moderate solubility if the threshold concentration is 31.3 μM to 250 μM) | M (moderate solubility if the threshold concentration is 31.3 μM to 250 μM) | M (moderate solubility if the threshold concentration is 31.3 μM to 250 μM)
CCCNc1ncnc2[nH]cc(C(=O)c3ccc(Nc4ccc(OC)nc4)nc3F)c12 [Compound P-4068, [2-fluoro-6-[(6-methoxy-3-pyridyl)amino]-3-pyridyl]-[4-(propylamino)-7H-pyrrolo[2,3-d]pyrimidin-5-yl]methanone] | < 10 | H (high solubility if the threshold concentration is >250 μm) | M (moderate solubility if the threshold concentration is 31.3 μM to 250 μM) | M (moderate solubility if the threshold concentration is 31.3 μM to 250 μM) | M (moderate solubility if the threshold concentration is 31.3 μM to 250 μM)
COc1ccc(Nc2ccc(C(=O)c3c[nH]c4ncnc(N5CCOCC5)c34)c(F)n2)cn1 [Compound P-4070, [2-fluoro-6-[(6-methoxy-3-pyridyl)amino]-3-pyridyl]-(4-morpholino-7H-pyrrolo[2,3-d]pyrimidin-5-yl)methanone] | > 1000 | H (high solubility if the threshold concentration is >250 μm) | M (moderate solubility if the threshold concentration is 31.3 μM to 250 μM) | M (moderate solubility if the threshold concentration is 31.3 μM to 250 μM) | M (moderate solubility if the threshold concentration is 31.3 μM to 250 μM)
COc1ccc(Nc2ccc(C(=O)c3c[nH]c4ncnc(NCc5ccc(C(F)(F)F)nc5)c34)c(F)n2)cn1 [Compound P-4071, [2-fluoro-6-[(6-methoxy-3-pyridyl)amino]-3-pyridyl]-[4-[[6-(trifluoromethyl)-3-pyridyl]methylamino]-7H-pyrrolo[2,3-d]pyrimidin-5-yl]methanone] | < 100 | M (moderate solubility if the threshold concentration is 31.3 μM to 250 μM) | M (moderate solubility if the threshold concentration is 31.3 μM to 250 μM) | M (moderate solubility if the threshold concentration is 31.3 μM to 250 μM) | M (moderate solubility if the threshold concentration is 31.3 μM to 250 μM)
COc1ccc(Nc2ccc(C(=O)c3c[nH]c4ncnc(N[C@@H](C)c5ccc(F)cc5)c34)c(F)n2)cn1 [Compound P-4072, [2-fluoro-6-[(6-methoxy-3-pyridyl)amino]-3-pyridyl]-[4-[[(1S)-1-(4-fluorophenyl)ethyl]amino]-7H-pyrrolo[2,3-d]pyrimidin-5-yl]methanone] | < 10 | M (moderate solubility if the threshold concentration is 31.3 μM to 250 μM) | L (low solubility if the threshold concentration is <31.3 μM) | L (low solubility if the threshold concentration is <31.3 μM) | L (low solubility if the threshold concentration is <31.3 μM)
COc1ccc(Nc2ccc(C(=O)c3c[nH]c4ncnc(NCC5CCCO5)c34)c(F)n2)cn1 (stereo not shown) [Compound P-4073, [2-fluoro-6-[(6-methoxy-3-pyridyl)amino]-3-pyridyl]-[4-(tetrahydrofuran-2-ylmethylamino)-7H-pyrrolo[2,3-d]pyrimidin-5-yl]methanone] | < 10 | M (moderate solubility if the threshold concentration is 31.3 μM to 250 μM) | L (low solubility if the threshold concentration is <31.3 μM) | L (low solubility if the threshold concentration is <31.3 μM) | L (low solubility if the threshold concentration is <31.3 μM)
